The subject of data set [1] is PA_1081725. The conditions noted are these: isolate purchased from JMI Laboratories, no MIC method given; cited from earlier work.
In data set [2] the test system is PA_1076058. The conditions noted are these: isolate purchased from JMI Laboratories, no MIC method given; cited from earlier work.
Data set [3] relates to P. aeruginosa PAO1. Further details: method as in PMID 31038945. The following applies: planktonic growth, cited from earlier work.
The target in data set [4] is T1, BfrB (Pseudomonas aeruginosa, UniProt Q9HY79). Nature of the data set: Dissociation constant (Kd) for BfrB by fluorescence polarization. The class given is binding. The procedure:
Dissociation constants for the interaction between BfrB and 3-aminoisoindoline-1,3-dione derivatives (Table 1, Figure S1) were measured in vitro with a fluorescence polarization method based on the intrinsic fluorescence of the isoindoline-1,3-dione moiety, as described previously.[25]
25 (A) and KM-5-66 (B) for BfrB, evaluated by fluorescence polarization, as described previously1.
Values were obtained in 100 mM potassium phosphate buffer (pH 7.6) containing 1 mM TCEP and
0.5% DMSO. The initial concentrations of KM-5-25 and KM-5-66 were 5 µM. The Kd values are the
average and standard deviation from three independent measurements. […]
On the technique in general: Polarisation of emitted light reports the rotation of a fluorescent probe.

The test system of data set [5] is P. aeruginosa PAO1. Briefly: Half maximal inhibitory concentration (IC50) on planktonic growth, CFU/mL enumeration. The following applies: 24 h, 35 °C, 2% DMSO, this work. It counts as cell-based, Pseudomonas aeruginosa. As for the experimental part: Chemicals were purchased from Fisher Scientific unless otherwise stated. P. aeruginosa PAO1 was obtained from the University of Washington Genome center.[81] The PAO1 strain expressing enhanced yellow fluorescent protein (EYFP) was prepared previously.[26] Clinical isolates of P. aeruginosa were purchased from JMI Laboratories (North Liberty, IA, USA). […] Starter cultures were grown from a single colony at 37 °C and shaking at 220 rpm for 14 h in 5 mL PI media supplemented with 10 μM Fe. Pellicle biofilms were cultured for 48 h at 30 °C in PI media supplemented with 20 μM Fe. Surface-attached biofilms were cultured in AB minimal media[82] supplemented with trace metals [0.15 μM (NH4)2MoO4, 3 μM CuSO4, 2 μM Co(NO3)2, 9.4 μM Na2B4O7, and 7.6 μM ZnSO4], 3 mM glucose and 15 μM Fe. Iron supplementation was carried out by addition of a small volume of filter-sterilized 10 mM (NH4)2Fe(SO4)2 (pH ∼ 2.0) solution. […]; IC50 values (Table 1, Figure S1) were determined as reported previously[25] with small modifications. In brief: precultures of P. aeruginosa PAO1 (5 mL) were grown in LB media for 13 h at 37 °C and 220 rpm in 50 mL conical tubes (VWR International, PA). The cells were centrifuged for 5 min at 4000 rpm and 4 °C, washed two times and then diluted in buffer (100 mM KH2PO4 and 15 mM (NH4)2SO4) to an optical density at 600 nm (OD600) of 0.1. A small volume of compound stock solution (10 mM) was transferred to a microcentrifuge tube, initially diluted with DMSO to 20 μL, and then diluted to 1 mL with preculture cell suspension in defined media with OD600 = 0.0001, so the final DMSO concentration is 2%. The resultant cell suspension (200 μL) was transferred to a clear-bottom polystyrene 96-well plate (VWR) covered with a lid and incubated at 35 °C and 205 cpm for 24 h in a Synergy H1 microplate reader (Biotek Instruments Inc., Vermont). The cell cultures were serially diluted and then plated on PI Agar (PIA; BD biosciences) plates for enumeration of viable cells (CFU/mL). The % growth was calculated from the ratio CFU/mL(treated)/CFU/mL(untreated control). To calculate the IC50 values, the % growth was plotted as a function of compound concentration, expressed as log[compound] (μM), and fitted to the 4-parameter logistic model describing the sigmoid-shaped response pattern (eq 1),[84] where b is the slope factor, max is the upper asymptote (plateau), and min is the lower asymptote. Values are the average and standard deviation from three independent experiments. [drawing 1] 1

A short description of data set [6]: Aqueous solubility. The class given is physicochemical. The following applies: for solubility: PBS buffer, read-out: solubility in PBS buffer; for aqueous solubility (in words): aqueous solution.
The test system of data set [7] is P. aeruginosa. Also noted: method as in PMID 11420333. The following applies: cited from earlier work.
The subject of data set [8] is EYFP-expressing P. aeruginosa PAO1 pellicles. Nature of the data set: Viable cells (CFU/mL) dispersed from pellicle biofilms. It counts as cell-based, Pseudomonas aeruginosa. The conditions noted are these: 2-day old pellicles, 24 h.
Description: Pellicle biofilms were grown as described above. Planktonic and loosely attached cells were washed (3 times) by immersing the coverslip-adhered pellicles (biofilm facing up) into a well of a 12-well plate containing 3 mL PBS, and incubating (5 min) with gentle rocking. To remove the pellicle from the coverslip, break the extracellular matrix and release cells from the biofilm, the coverslip-adhered pellicle was placed in a 50 mL conical tube containing a 2 mL suspension of zirconia beads (0.1 mm diameter, BioSpec Products), 10 mL PBS, 0.2 μg/mL alginate lyase and 0.2 μg/mL DNase. The resultant mixture was incubated at room temperature for 3 min, followed by vigorous vortexing for 4 min. After sedimentation of the zirconia beads, a 100 μL aliquot was used for serial dilution and plating on PIA plates for subsequent enumeration of viable cells (CFU/mL).
The subject of data set [9] is Pellicles of P. aeruginosa PAO1 expressing EYFP. Briefly: Pellicle biofilm assay, CLSM imaging and COMSTAT viable biomass. The following applies: 2-day old pellicles, 24 h. It counts as cell-based, Pseudomonas aeruginosa. The procedure:
Pellicle biofilms of EYFP-expressing P. aeruginosa PAO1 or clinical isolates were grown in PI media supplemented with 20 μM Fe. Starter cultures were diluted to OD600 = 0.001 in 4 mL media, placed in 35 × 10 mm Petri dishes and incubated statically at 30 °C for 48 h. The pellicles were transferred onto circular (1.5 cm diameter) glass coverslips by gently allowing the surface of a coverslip to contact a pellicle. The pellicle-adhered coverslip was washed in PBS and then deposited on top of 1.5 mL AB challenge media contained in a well of a 12-well microplate, with the pellicle exposed to the media. […] The coverslip-adhered pellicles were exposed to challenge media at 30 °C for 24 h, changing the challenge media every 12 h by transferring the pellicle-adhered coverslip to a new plate containing prewarmed challenge media.
Excess fluorescent dye was washed with PBS, the coverslip was mounted on a glass slide using 5 μL SlowFade (Invitrogen Life Technologies) and the edges sealed with fingernail polish. CLSM image stacks (z-step size of 0.3 μm) were acquired with the aid of a Leica TCS SP8 microscope, as described above. Quantitative analysis was performed by determination of pellicle biomass using COMSTAT[55] and the Otsu method of automatic thresholding.[86]

Data set [10] relates to EYFP-expressing P. aeruginosa PAO1 biofilms. Briefly: Flow cell biofilm assay, CLSM imaging and COMSTAT viable biomass. It counts as cell-based, Pseudomonas aeruginosa. The conditions noted are these: 3-day old flow cell biofilms, 24 h treatment, 25× MIC. An excerpt: The treated biofilms were counterstained with the cell impermeable fluorescent nucleic acid dye Sytox Red and then imaged with the aid of confocal laser scanning microscopy (CLSM).
Image stacks were acquired with a z-step size of 0.3 μm at randomly chosen positions.

The target of data set [11] is T1, BfrB. The conditions noted are these: Bfd binding sites on BfrB equivalent and independent; cited from earlier work.
The mark [12] stands for this setting: Pseudomonas aeruginosa, PAO1, defined media, read-out: IC50.

Here are results for 22 molecules from PMC7802073, “Small Molecule Inhibitors of the Bacterioferritin (BfrB)–Ferredoxin (Bfd) Complex Kill Biofilm-Embedded Pseudomonas aeruginosa Cells” (ACS Infectious Diseases, 2020).

In brackets after ≈: the same amount, converted by molar mass. Like-named read-outs stand apart in the source and are kept apart here. A value given as a limit tells only on which side of the number the result lay.

T1 sequence (Q9HY79 whole entry): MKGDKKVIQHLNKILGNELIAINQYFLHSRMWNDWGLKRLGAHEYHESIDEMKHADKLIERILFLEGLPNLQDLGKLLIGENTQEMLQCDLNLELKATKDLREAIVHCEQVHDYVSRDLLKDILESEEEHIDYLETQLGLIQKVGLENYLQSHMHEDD

Usually MIC stands for the least concentration at which growth counts as inhibited. As to `NCC[C@H](O)C(=O)N[C@@H]1C[C@H](N)[C@@H](O[C@H]2O[C@H](CN)[C@@H](O)[C@H](O)[C@H]2O)[C@H](O)[C@H]1O[C@H]1O[C@H](CO)[C@@H](O)[C@H](N)[C@H]1O` [Amikacin], the MIC in data set [1] is 16 µg/mL (≈ 27.3 µM); in data set [2], 4 µg/mL (≈ 6.83 µM).

In general, IC50 refers to the concentration that gives 50% inhibition. For `Nc1cccc2c1C(=O)NC2=O` [Analog 8, 4-aminoisoindoline-1,3-dione], the IC50 entry in data set [3] is reported as “not active”.

For `O=C1NC(=O)c2c(NCc3ccccc3O)cccc21` [Analog 11], in [3] (read-out: IC50), the IC50 is 258 ± 23 µM.

On to `O=C1NC(=O)c2c(NCCCc3cccc(O)c3)cccc21` [Analog 16], for which, in data set [3] (read-out: IC50), the IC50 was 121 ± 4 µM.

For the molecule `C[C@H]1[C@H](NC(=O)/C(=N\OC(C)(C)C(=O)O)c2csc(N)n2)C(=O)N1S(=O)(=O)O` [Aztreonam], the MIC in data set [1] is greater than 16 µg/mL; in [2] it was 16 µg/mL (≈ 36.7 µM).

The term Kd denotes a measure of binding affinity in units of concentration. With `O=C1NC(=O)c2c(NCc3cccc(O)c3)cccc21` [BN-XIV-53], in [4], binding was put at a Kd of 21 ± 3 µM. Moreover, the IC50 entry in [5] (defined media) is reported as “not active at 120 μM”.

As to `CC(C)(O/N=C(\C(=O)N[C@@H]1C(=O)N2C(C(=O)[O-])=C(C[n+]3ccccc3)CS[C@H]12)c1csc(N)n1)C(=O)O` [Ceftazidime], the MIC in data set [1] and in data set [2] was greater than 32 µg/mL each time.

In the case of `C[C@H]1c2cccc(O)c2C(=O)C2=C(O)[C@]3(O)C(=O)C(C(N)=O)=C(O)[C@@H](N(C)C)[C@@H]3[C@@H](O)[C@@H]21` [Doxycycline], the MIC in [1] is 4 µg/mL (≈ 9 µM); in [2] it was greater than 8 µg/mL.

Regarding `CNC(C)C1CCC(N)C(OC2C(N)CC(N)C(OC3OCC(C)(O)C(NC)C3O)C2O)O1` (stereo not shown) [Gentamicin], the minimum inhibitory concentration (MIC) in [1] was 4 µg/mL (≈ 8.38 µM); in data set [2], greater than 16 µg/mL.

The molecule `O=C1NC(=O)c2c(NCCCc3cc(F)ccc3O)cccc21` [JAG-5-6, 4-((3-(5-fluoro-2-hydroxyphenyl)propyl)amino)isoindoline-1,3-dione] had a Kd in data set [4] of 0.43 ± 0.07 µM. Moreover, the IC50 in [5] (setting [12]) was determined as 54 ± 9 µM.

`O=C1NC(=O)c2c(NCc3cc(F)ccc3O)cccc21` [JAG-5-7, 4-((5-Fluoro-2-hydroxybenzyl)amino)isoindoline-1,3-dione] had a Kd in data set [4] of 7 ± 2 µM. Besides, the IC50 in [5] (setting [12]) was found to be 128 ± 26 µM.

As for `O=C1NC(=O)c2c(NCCCc3ccccc3O)cccc21` [KM-5-28], binding in data set [4] was characterised by a dissociation constant (Kd) of 1.4 ± 0.2 µM. For the same molecule, the IC50 in data set [5] (setting [12]) was 96 ± 1 µM.

Broadly, the solubility is how much of the substance goes into solution per volume. On to `O=C1NC(=O)c2c(NCc3c(O)cccc3Cl)cccc21` [KM-5-29, 4-((6-Chloro-2-hydroxybenzyl)amino)isoindoline-1,3-dione], for which, in [6], the solubility is less than 30 µM and the “aqueous solubility (in words)” value is “poorly soluble in aqueous solution”. In data set [4], this molecule gave a Kd of 6 ± 0.5 µM.

In turn, `O=C1NC(=O)c2c(NCc3cccc(Cl)c3O)cccc21` [KM-5-30, 4-((3-Chloro-2-hydroxybenzyl)amino)isoindoline-1,3-dione] came in with a Kd in [4] of 6 ± 1 µM. Besides, the IC50 in [5] (setting [12]) came out at 156 ± 30 µM.

As to `O=C1NC(=O)c2c(NCc3cc(O)cc(Cl)c3)cccc21` [KM-5-50, 4-((5-Chloro-3-hydroxybenzyl)amino)isoindoline-1,3-dione], the affinity in data set [4], expressed as Kd, was 11 ± 2 µM. The IC50 in [5] (setting [12]) was 82 ± 16 µM.

Take `O=C1NC(=O)c2c(NCCCc3cc(Cl)ccc3O)cccc21` [KM-5-54]: in data set [6], the solubility was less than 30 µM and the “aqueous solubility (in words)” value was “poor water solubility”. In data set [4], the Kd came out at 0.22 ± 0.04 µM.

The molecule `O=C1NC(=O)c2c(NCCCc3cc(O)cc(O)c3)cccc21` [KM-5-57] yielded a Kd in [4] of 2.5 ± 0.4 µM. In addition, the IC50 entry in data set [5] (defined media) is reported as “not active at 200 μM”.

For the molecule `C[C@@H](O)[C@H]1C(=O)N2C(C(=O)O)=C(S[C@@H]3CN[C@H](C(=O)N(C)C)C3)[C@H](C)[C@H]12` [Meropenem], the values for the MIC in [1] and in data set [2] were 32 µg/mL (≈ 83.4 µM) and 4 µg/mL (≈ 10.4 µM), respectively.

Regarding `O=C(O)c1cn(C2CC2)c2cc(N3CCNCC3)c(F)cc2c1=O` [ciprofloxacin], the MIC is 16 µg/mL (≈ 48.3 µM) in data set [1], 0.75 µM in data set [7] (reported MIC converted to μM), 0.25 µg/mL in [7] (reported MIC) and greater than 16 µg/mL in data set [2].

As for `NC[C@H]1O[C@H](O[C@H]2[C@H](O)[C@@H](O[C@H]3O[C@H](CO)[C@@H](O)[C@H](N)[C@H]3O)[C@H](N)C[C@@H]2N)[C@H](N)C[C@@H]1O` [tobramycin], the “% cell survival, CFU/mL(after treatment)/CFU/mL(pretreatment)” value in [8] (25× MIC) and in data set [8] (50× MIC) was roughly 70% each time. For the same molecule, in data set [9] (25× and 50× the MIC), the “tolerance of pellicle biofilms (CLSM)” value is recorded as “tolerant”. Also, the MIC in data set [1] is 16 µg/mL (≈ 34.2 µM); in data set [7] (reported MIC converted to μM), 1.07 µM; in data set [7] (reported MIC), 0.5 µg/mL; in data set [2] it was greater than 16 µg/mL. Further, in data set [10], the “% survival (viable biomass, COMSTAT)” value is reported as roughly 70%.

In the case of colistin, the “% cell survival, CFU/mL(after treatment)/CFU/mL(pretreatment)” value in data set [8] (25× MIC) is reported as roughly 10%; in data set [8] (50× MIC), roughly 1%. Also, the “fluorescence signal from viable cells expressing EYFP” value in [9] (50× MIC) is “undetectable”. For the same molecule, the “susceptibility of pellicle biofilms (CLSM)” value in data set [9] (concentrations above 10× MIC) is on record as “susceptible”. The MIC is 0.79 µM in data set [7] (reported MIC converted to μM) and 1 µg/mL in data set [7] (reported MIC). In addition, in data set [10], the “% survival (viable biomass, COMSTAT)” value was roughly 20%.

B1: Bfd: bacterioferritin-associated ferredoxin, a [2Fe-2S] protein that binds BfrB to mobilize stored iron (protein, UniProt Q9HY80 1-73, looked up)
Bacterioferritin-associated …: MYVCLCQGVTDNQIRDAIYEGCCSYREVREATGVGTQCGKCACLAKQVVRETLNDLQSAQPVPAFGTTAFVAA
Regarding B1, in data set [11], the Kd was 3 µM.
